# Results as given in patent US20240335395A1, “COMPOSITIONS AND METHODS FOR PREVENTING AND/OR TREATING DISEASE ASSOCIATED WITH IL-23 EXPRESSION” (ALLSPIM, priority 2021, published 2024).
# Experiments:
# [1] = system: MSU-induced leukocyte recruitment; test: MSU-induced leukocyte recruitment to the synovial cavity of knee joint; type: in vivo, mouse; conditions: 20 h; 2,4-D 100 mg/kg, CLC 1 mg/kg, DEX 0.5 mg/kg
# Method: 2,4-D, isolated and purified from Chloranthus spicatus (purity≥98%), was purchased from BOC Science (Shirley, NY). Colchicine (CLC) (purity≥96%) and dexamethasone (DEX) (purity≥98%) were purchased from Sigma. Mice (six per group) were treated with 2,4-D (100 mg/kg or 20 mg/kg, i.p.), CLC (1 mg/kg or 0.2 mg/kg, i.p.), DEX (0.5 mg/kg or 0.1 mg/kg, i.p.), or vehicle (20% polyoxyethylenesorbitan monooleate (Tween 80) plus PBS) 30 min before intra-articular stimulus with MSU (100 μg/10 μL, i.a.). Six mice with intra-articular injection with PBS alone served as a negative control.
# (§1) Induction of MSU-Induced Knee Joint Inflammation. Male ICR (CD-1) mice (35-45 g, 10-12 weeks) were purchased from VitalRiver Inc (Beijing, China) and were kept in an animal care facility under controlled temperature of 21±1° C., humidity, and on a light/dark cycle, with ad libitum access to water and standard laboratory chow diet. Animal care and handling procedures were approved by the Animal Ethics Committee of GZUCM (Guangzhou University of Chinese Medicine). All efforts were made to minimize animal suffering and to reduce the number of animals used. Joint inflammation was induced by the intra-articular (i.a.) administration of MSU (200 μg/20 μl) into the right and left knee joints of mice under inhaled 3% isoflurane anesthesia. Control animals received an injection (i.a.) of sterile PBS (20 μL).
# Histopathological Analysis. Knee joint was collected 20 h after MSU injection, fixed with 10% paraformaldehyde in PBS, and then decalcified for 10 days with EDTA and embedded in paraffin for histological analysis. […] Results are expressed as leukocytes infiltrate (cell/field) counted at the inflammatory foci within synovial cavity as indicative of synovitis. […]
# Statistical Analysis. Data were analyzed using GraphPad Prism statistical software (GraphPad Software, Inc., United States-500.288, version 5.0). Results are presented as means±SEM or SD of measurements made on 6 mice per group, with statistical significance determined by two-way ANOVA, comparing each group to the control (“Model”) group. […]
# [2] = system: IL-10; test: MSU-induced IL-10 in knee joint tissue (multiplex microassay); type: in vivo, mouse; conditions: 2,4-D 100 mg/kg, DEX 0.5 mg/kg
# Method: (§2) Mice (six per group) were treated with 2,4-D (100 mg/kg or 20 mg/kg, i.p.), CLC (1 mg/kg or 0.2 mg/kg, i.p.), DEX (0.5 mg/kg or 0.1 mg/kg, i.p.), or vehicle (20% polyoxyethylenesorbitan monooleate (Tween 80) plus PBS) 30 min before intra-articular stimulus with MSU (100 μg/10 μL, i.a.). Six mice with intra-articular injection with PBS alone served as a negative control.
# as §1
# (§3) Cytokine Measurement. Mice were anesthetized and sacrificed. Knee joints were collected and frozen in liquid nitrogen. Samples were then homogenized in 500 μl of buffer containing protease inhibitors, centrifuged (3600 rpm, 4° C., 15 min) and supernatants were used to determine Th1/Th2/Th17 cytokine levels using a multiplex microassay (Qantibody® mouse TH17 Array 1 kit, Cat. No.: QAM-TH17-1; RayBiotech, Norcross, GA). Results were expressed as picograms (pg) of cytokine/mg of tissue.
# (§4) Statistical Analysis. […] For in vitro experiments, microassays were performed in quadruplicate. p<0.05 was considered significant (*p<0.05, **p<0.01, ***p<0.001).
# [3] = system: IL-1ß; test: MSU-induced IL-1ß in knee joint tissue (multiplex microassay); type: in vivo, mouse; conditions: 2,4-D 100 mg/kg, CLC 1 mg/kg, DEX 0.5 mg/kg
# Method: as §2, §1, §3, §4
# [4] = system: IL-23; test: IL-23 production (ELISA of supernatant) in LPS-stimulated THP-1 cell culture, Examples 1 and 8; type: cell-based, human
# Method: The THP-1 cell line (TIB-202) was obtained from the American Type Culture Collection (ATCC, USA), grown in RPMI 1640 culture medium (Gibco) supplemented with 10% fetal bovine serum (Gibco, UK), 50 U/mL penicillin-streptomycin (Gibco), and 0.05 mM 2-Mercaptoethanol (Gibco). Cultured cells were plated into culture plates in appropriate volumes with a cell density of 500,000 cells/mL.
# PCR was performed in duplicate using SYBR Green qPCR master mix (Takara Biomedical Technology Co., Ltd, Dalian, China) on an ABI 7500 Real-Time PCR System (Thermo, USA). The cycling program was as follows: denaturation at 95° C. for 15 s, 40 cycles of 95° C. for 15 s and extension at 60° C. for 60 s, followed by melt curve generation. The ΔΔCT method was used to quantify relative mRNA levels as described in User Bulletin #2 for the ABI PRISM 7700 Sequence Detection System (Applied Biosystems, 2001). The primer sequences used in this study are 5′-[…]-3′ (forward), 5′-[…]-3′ (reverse) for human IL-23p19 (SEQ ID NOs: 4 and 5, respectively); and 5′-ACAGTCCATGCCATCACTG-3′ (forward) and 5′-AGTAGAGGCAGGGATGATG-3′ for human GAPDH as a reference (SEQ ID NOs: 6 and 7, respectively). 24 hours after culture and treatments, supernatants were collected and IL-23 levels measured using the IL-23 Human Uncoated ELISA Kit (ThermoFisher Scientific Inc., USA) according to the manufacturer's instructions. A Varioskan LUX microplate reader (Thermo Fisher, USA) was used for the assay and 4-parameter logistic regression was used for data analysis. Two duplicates per sample were performed and results were averaged.
# The anti-IL-23 activity of 2,4-D was compared with the commercially prescribed nonsteroidal anti-inflammatory drugs (NSAIDs:[…], Ibuprofen, and Aspirin) in the LPS-stimulated THP-1 cell culture system described above (Example 1)).
structure (smiles),measurement,setting,value
"COc1cc(O)c(OC)c(O)c1C(=O)/C=C/c1ccccc1 [2,4-D, 2′,4′-dihydroxy-3′,6′-dimethoxychalcone]",reduction of MSU-induced leukocyte recruitment,[1],4.5 fold
same,decrease of IL-10 in knee joint tissue,[2],1.7 fold
same,decrease of IL-1ß in knee joint tissue,[3],5.3 fold
same,decrease of IL-23 detected in culture supernatant,"[4]; LPS-stimulated THP-1, 24 h",more than 90%
same,inhibition in IL-23 production/release in supernatant,"[4]; LPS-stimulated THP-1, Example 8",5 to 10 fold
same,concentration of maximum inhibition of IL-23 cytokine production,[4]; LPS-stimulated THP-1 cell culture,20 µg/mL
